Source: article PMC5941726, “Evaluating Hepatobiliary Transport with ^18F-Labeled Bile Acids: The Effect of Radiolabel Position and Bile Acid Structure on Radiosynthesis and In Vitro and In Vivo Performance” (Contrast Media & Molecular Imaging, 2018)
Where two headings read alike, the source gives them in different places.

Legend:
OATP1B1 [1] = target: T1, OATP1B1 (Homo sapiens, UniProt Q9Y6L6)
T1 sequence (Q9Y6L6 1-691): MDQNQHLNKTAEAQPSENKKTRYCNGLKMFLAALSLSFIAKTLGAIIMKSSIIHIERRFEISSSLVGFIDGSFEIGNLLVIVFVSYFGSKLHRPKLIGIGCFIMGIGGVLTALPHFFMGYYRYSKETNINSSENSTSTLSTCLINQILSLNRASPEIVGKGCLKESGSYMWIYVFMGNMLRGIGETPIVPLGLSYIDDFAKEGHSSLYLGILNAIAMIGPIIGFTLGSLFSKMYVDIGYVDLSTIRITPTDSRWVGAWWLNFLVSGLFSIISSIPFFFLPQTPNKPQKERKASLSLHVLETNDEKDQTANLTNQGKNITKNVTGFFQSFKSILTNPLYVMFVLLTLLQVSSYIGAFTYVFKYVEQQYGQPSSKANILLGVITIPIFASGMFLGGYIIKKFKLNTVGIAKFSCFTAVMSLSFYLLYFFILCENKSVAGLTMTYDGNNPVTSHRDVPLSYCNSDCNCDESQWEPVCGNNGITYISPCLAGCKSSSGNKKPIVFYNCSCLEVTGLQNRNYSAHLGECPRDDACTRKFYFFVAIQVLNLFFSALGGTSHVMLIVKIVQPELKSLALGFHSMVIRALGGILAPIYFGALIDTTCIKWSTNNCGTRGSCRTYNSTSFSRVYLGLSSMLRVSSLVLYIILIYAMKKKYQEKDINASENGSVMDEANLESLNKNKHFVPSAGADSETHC
Description: (§2) Chinese Hamster Ovary (CHO) and Human Embryonic Kidney (HEK) cells expressing NTCP and OATP1B1, respectively (Solvo Biotechnologies), were used.
(§3) Cells were seeded in 24-well plates at 400,000 cells/well. […] All dosing solutions were formulated in the washing buffer and dosing was executed in triplicate. The incubation was stopped by placing the plates on ice and adding 1 mL ice-cold 1% BSA HBSS-solution. The supernatant was aspirated and the cells were washed twice with 2 mL ice-cold HBSS-solution. NaOH (250 μl, 0.1 M) was added to lyse the cells and the plates were shaken (15 minutes, 37°C). Aliquots of this lysate were subjected to liquid scintillation counting (TriCarb 2900 TR; Perkin Elmer) and protein determination with a BCA-assay (ThermoFisher Scientific).

BSEP = BSEP (Homo sapiens, UniProt O95342); assay: Inhibition of [^3H]TC uptake in BSEP membrane vesicles (efflux assay)
Chain of BSEP (O95342 whole entry, species assumed): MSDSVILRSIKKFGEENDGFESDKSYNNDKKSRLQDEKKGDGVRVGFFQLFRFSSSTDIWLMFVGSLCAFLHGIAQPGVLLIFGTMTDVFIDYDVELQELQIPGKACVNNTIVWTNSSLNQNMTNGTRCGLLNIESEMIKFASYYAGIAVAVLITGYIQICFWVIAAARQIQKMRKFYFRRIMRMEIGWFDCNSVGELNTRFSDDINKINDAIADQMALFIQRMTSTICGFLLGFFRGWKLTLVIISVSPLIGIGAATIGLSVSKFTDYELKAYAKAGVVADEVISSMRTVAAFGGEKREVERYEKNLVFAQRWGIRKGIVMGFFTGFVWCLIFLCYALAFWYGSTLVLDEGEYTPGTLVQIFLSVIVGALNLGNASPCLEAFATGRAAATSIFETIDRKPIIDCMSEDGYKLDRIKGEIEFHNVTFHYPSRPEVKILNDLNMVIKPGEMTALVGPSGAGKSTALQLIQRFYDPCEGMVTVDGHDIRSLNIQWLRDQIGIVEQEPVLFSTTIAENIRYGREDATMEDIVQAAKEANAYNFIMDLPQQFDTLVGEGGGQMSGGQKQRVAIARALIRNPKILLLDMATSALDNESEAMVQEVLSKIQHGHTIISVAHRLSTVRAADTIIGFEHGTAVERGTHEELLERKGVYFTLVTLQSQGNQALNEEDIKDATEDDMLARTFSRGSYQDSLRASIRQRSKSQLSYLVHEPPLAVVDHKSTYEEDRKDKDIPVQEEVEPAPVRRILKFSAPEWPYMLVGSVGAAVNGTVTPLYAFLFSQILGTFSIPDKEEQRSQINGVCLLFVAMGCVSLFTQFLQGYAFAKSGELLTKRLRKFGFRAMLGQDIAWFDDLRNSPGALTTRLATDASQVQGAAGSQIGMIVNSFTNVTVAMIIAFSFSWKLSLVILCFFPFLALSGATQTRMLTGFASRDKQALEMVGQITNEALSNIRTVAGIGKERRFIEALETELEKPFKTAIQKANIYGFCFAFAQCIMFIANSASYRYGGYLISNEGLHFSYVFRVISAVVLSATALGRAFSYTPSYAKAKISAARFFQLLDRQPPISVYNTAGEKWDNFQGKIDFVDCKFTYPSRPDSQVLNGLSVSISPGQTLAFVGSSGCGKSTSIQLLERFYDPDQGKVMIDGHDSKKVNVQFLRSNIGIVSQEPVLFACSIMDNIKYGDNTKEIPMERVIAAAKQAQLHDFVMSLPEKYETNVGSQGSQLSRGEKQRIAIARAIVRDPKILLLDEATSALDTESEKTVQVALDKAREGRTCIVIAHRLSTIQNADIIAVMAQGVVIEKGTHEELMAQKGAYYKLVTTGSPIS
Description: All dosing was performed in triplicate. The plates were suspended in a 37°C water bath 1 minute before the incubation. Incubation was started by adding 10 μL of the ATP solution or buffer solution (negative control). Each well contained a final volume of 30 μL and the plates were incubated for 10 minutes at 37°C.
The contents of each well were pipetted in a glass fiber filter plate (Multiscreen HTS plates; Merck Millipore) and washed 3 times with 200 μL ice-cold buffer solution. Finally, 100 μL 0.1 M NaOH was added: lysis of the vesicles took place for 10 minutes at room temperature. An aliquot was used for liquid scintillation counting.

NTCP = target: T2, NTCP (Homo sapiens, UniProt Q14973); assay: Inhibition of [^3H]taurocholate uptake in CHO cells expressing NTCP (competition assay); format: cell-based; details: 1 μM [^3H]TC, 15 min 37°C, Cheng-Prusoff from IC50 and Km, mean ± SD n = 3
T2 construct: host or cells: Chinese Hamster Ovary (CHO) cells
T2 sequence (Q14973 1-349): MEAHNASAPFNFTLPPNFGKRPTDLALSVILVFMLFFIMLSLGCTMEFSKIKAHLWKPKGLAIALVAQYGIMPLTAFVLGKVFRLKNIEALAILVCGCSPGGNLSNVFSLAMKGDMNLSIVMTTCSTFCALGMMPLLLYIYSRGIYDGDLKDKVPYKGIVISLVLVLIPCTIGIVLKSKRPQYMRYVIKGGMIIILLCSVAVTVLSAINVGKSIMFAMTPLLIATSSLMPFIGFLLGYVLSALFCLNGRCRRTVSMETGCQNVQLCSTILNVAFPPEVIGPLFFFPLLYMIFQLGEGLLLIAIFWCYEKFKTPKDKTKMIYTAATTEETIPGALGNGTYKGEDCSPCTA
From the text: Maintenance of these cell cultures was described earlier.

OATP1B1 [2] = target: T1, OATP1B1; assay: cell-based
Description: as §2, §3

wild-type FVB-mice = assay: Dynamic PET/CT imaging of hepatobiliary transport in wild-type FVB-mice; format: in vivo, mouse; details: mouse, in vivo, iv; for Biliary clearance / Injected activity found in gallbladder and intestines after 1 hour: female, FVB; for Biliary clearance: 9 MBq
Description: The in vivo transport characteristics of the ^18F labeled bile acids were evaluated in wild-type FVB-mice (female, 5 w). The tracer described earlier, 3β-[^18F]FCA, was also included as a reference standard. Imaging was performed with a PET/CT (FLEX Triumph II small animal PET/CT-scanner; axial field of view: 7.5 cm; 1.3 mm spatial resolution; TriFoil Imaging). For each tracer, three animals were used. The animals were housed and handled in accordance with the European Ethics Committee guidelines and the experiments were approved by the Animal Experimental Ethical Committee of Ghent University (ECD 15/69).
Food and water were provided ad libitum, but the animals were fasted overnight before a PET/CT-scan. They were anesthetized with 1.5 v : v% isoflurane in O2 and placed on a heated bed. To allow injection of the tracer, a polyethylene intravenous line was inserted in the lateral tail vein and fixed. After the animals were transferred to the scanner animal bed, a 1 hour PET-scan was started and 9 MBq tracer was injected directly after starting the scan. Following this PET-scan, 9 MBq [^18F]FDG was injected and twenty minutes later, a second PET-scan with a 20-minute acquisition time was started.
All PET-scans were obtained in list-mode and were iteratively reconstructed (50 iterations). The 1-hour scan was reconstructed in the following frames: 8 × 15 s; 16 × 30 s; 10 × 60 s; 20 × 120 s. For presentation purposes, Maximum Intensity Projection PET/CT images were generated in Amide software. The data were analyzed using Pmod software v3.405 (PMOD Technologies): Regions Of Interest (ROIs) were drawn manually over the liver, gallbladder, and intestines. On the static [^18F]FDG scan, the left ventricle was delineated and this ROI was pasted on the dynamic scan to obtain an image-derived arterial blood concentration. The uptake of radioactivity in liver, gallbladder, and intestines was expressed as a percentage of the injected dose (% ID) and normalized for the weight of a 20 g mouse. The % ID in these organs was monitored in function of time to obtain time-activity curves (TACs). Biliary clearance of the tracers was determined with equation 2 from Ghibellini et al. [14](2) Biliary clearance=cumulative amount of tracer in gallbladder&intestines/AUC blood concentration0→60 min.
The Area Under the Curve (AUC), % ID, and time-to-peak values of the TACs were determined in GraphPad Prism v3.00 Software. The obtained parameters of the different ^18F labeled bile acids were compared to 3β-[^18F]FCA-values in SPSS Statistics 23 Software. Differences between two groups were analyzed with the nonparametric Mann–Whitney U test. A p value ≤ 0.05 was considered significant.

[3] = LogD determination of the tracers; format: physicochemical
Description: (§1) The logD-value, stability (in formulation for use and mouse serum), and identity of the tracer were assessed as described earlier. Radiochemical purity and percentage ^18F-labeling of precursor were determined by radio-TLC (silica gel TLC; with 10% MeOH in CH2Cl2 and 4 : 1 AcN : H2O, resp.).

[4] = Stability of the tracer in formulation for use; format: physicochemical
Description: as §1

[5] = Stability of the tracer in mouse serum; format: in vitro ADME
Description: as §1

OATP1B1 [6] = target: T1, OATP1B1; assay: Inhibition of [^3H]estradiol-17β-glucuronide uptake in HEK cells expressing OATP1B1 (competition assay)
Description: as §2, §3

Structure (SMILES) | Ki (OATP1B1 [1]) | Ki (NTCP) | Biliary clearance (wild-type FVB-mice) | Injected activity found in gallbladder and intestines after 1 hour (wild-type FVB-mice) | Organ uptake after intravenous injection (wild-type FVB-mice) | logD [3] | Stability in its formulation [4] | Stability in mouse serum [5] | also measured
C[C@H](CCC(=O)O)[C@H]1CC[C@H]2[C@@H]3[C@H](O)C[C@@H]4C[C@H](O)CC[C@]4(C)[C@H]3C[C@@H](F)[C@]12C [12βFCA] | 4.56 ± 0.25 µM | 30.1 ± 9.4 µM |  |  |  |  |  |  | Ki (BSEP; read-out: Ki for BSEP, BSEP membrane vesicles, 0.65 μM [^3H]TC, 10 min 37°C, Cheng-Prusoff from IC50 and Km, mean ± SD n = 3): 367 ± 38.1 µM
C[C@H](CCC(=O)O)[C@H]1CC[C@H]2[C@@H]3[C@H](O)C[C@@H]4C[C@H](O)CC[C@]4(C)[C@H]3C[C@H](O)[C@]12C [CA, Cholic acid] |  |  |  |  |  |  |  |  | Ki (OATP1B1 [2]): 42.7 ± 0.16 µM
C[C@H](CCC(=O)NCC(=O)O)[C@H]1CC[C@H]2[C@@H]3[C@H](O)C[C@@H]4C[C@@H]([18F])CC[C@]4(C)[C@H]3C[C@H](O)[C@]12C [3β-[^18F]FGCA, 3β-[^18F]fluoroglycocholic acid] |  |  | 0.47 ± 0.07 mL/min | approx. 80% | exclusive hepatic uptake | 0.011 ± 0.037 | stable | stable | 
C[C@H](CCC(=O)O)[C@H]1CC[C@H]2[C@@H]3[C@H](O)C[C@@H]4C[C@@H]([18F])CC[C@]4(C)[C@H]3CC[C@]12C [3β-[^18F]FCDCA, 3β-[^18F]fluorochenodeoxycholic acid] |  |  | 0.18 ± 0.04^∗ mL/min | 60% | exclusive hepatic uptake | 1.42 ± 0.16 | stable | stable | 
C[C@]12CC[C@@H]3c4ccc(O)cc4CC[C@H]3[C@@H]1CC[C@@H]2O[C@@H]1O[C@H](C(=O)O)[C@@H](O)[C@H](O)[C@H]1O [[^3H]EbG, [^3H]estradiol-17β-glucuronide] |  |  |  |  |  |  |  |  | Vmax of substrate uptake (OATP1B1 [6]; 0–150 μM, 10 min 37°C): 146.4 ± 5.52 pmol/min·mg protein; Km (OATP1B1 [6]; read-out: Km (Michaelis-Menten) of substrate uptake, 0–150 μM, 10 min 37°C): 11.7 ± 1.59 µM
C[C@H](CCC(=O)O)[C@H]1CC[C@H]2[C@@H]3[C@H](O)C[C@@H]4C[C@H](F)CC[C@]4(C)[C@H]3C[C@H](O)[C@]12C [3αFCA, 3α-fluorocholic acid] | 5.22 ± 0.56 µM | 2.53 ± 0.76 µM |  |  |  |  |  |  | Ki (BSEP): 199 ± 39.5 µM
